Experimental data as given in US8802720B2, “Acylamino-substituted fused cyclopentanecarboxylic acid derivatives and their use as pharmaceuticals” (SANOFI, priority 2008, dated 2014).

Biological target: human Edg-2 receptor (LPA1 receptor) (Homo sapiens, UniProt Q92633)
Assay: Edg-2 receptor inhibition by FLIPR calcium fluorescence measurement (LPA-mediated calcium liberation)
Format: cell-based
Settings: CHO cells stably overexpressing human Edg-2 receptor; LPA 18:1 100 nM; fluo-4 fluorescence; triplicate; read-out: Inhibitory concentrations IC50 for inhibition of the Edg-2 receptor
Experimental: A) Determination of Edg-2 Receptor Inhibition by Fluorescence Imaging Plate Reader (FLIPR) Measurements
The inhibition of the Edg-2 receptor (LPA1 receptor) by the compounds of the invention was quantified by the inhibitory effect on the LPA-mediated calcium liberation in a cell-based calcium fluorescence assay by use of Chinese hamster ovarian (CHO) cells in which the human Edg-2 receptor was stably overexpressed (FIp-In system, Invitrogen). […] Changes in intracellular calcium were determined by fluorescence measurement with the calcium-sensitive dye fluo-4 (Invitrogen) in a fluorescence imaging plate reader (FLIPR, […]).
CHO cells stably overexpressing the human Edg-2 receptor were seeded (40.000 per well) in black clear-bottomed poly-D-lysine-coated 96 well plates (Becton Dickinson, Biocoat cellware) approximately 18-24 h prior to the experiments. Cells were grown in an incubator at 37° C., 5% carbon dioxide and 95% humidity in cell culture media based on F-12 glutamax media (Gibco, #31765) supplemented with 1% (vol/vol) penicilline/streptomycine (PAN, #P06-07100), 10% (vol/vol) fetal calf serum (FCS, PAA, #A15-151) and hygromycin B (Invitrogen, #10687-010) 300 mg/l (final concentrations).
Prior to the FLIPR experiment, cells were loaded with fluo-4 acetoxymethyl ester (fluo-4 AM, Invitrogen, #F14202) for 60 min in an incubator at 37° C., 5% carbon dioxide and 95% humidity in dye-loading buffer consisting of Hanks' Balanced Salt Solution (HBSS, Invitrogen, #14065049) supplemented with fluo-4 AM at 2 μM (all data given for final concentration), Pluronic® F-127 0.05% (vol/vol) (Invitrogen, #P-3000 MP), HEPES 20 mM (Gibco, #15630), probenecid 2.5 mM (Sigma, #P-8761) and bovine serum albumin 0.05% (BSA, Sigma, #A-6003), adjusted to pH 7.5 with sodium hydroxide. During cell loading, fluo-4 AM is cleaved by intracellular esterase resulting in trapping of the dye fluo-4 within the cells. Loading was terminated by washing of the cells in a cell washer (Tecan Power washer) three times with the buffer specified afore but without fluo-4 AM and BSA. This latter buffer was also used as the buffer in the subsequent cell fluorescence measurements.
The dye-loaded and washed cells were pre-incubated for approximately 5 min with various concentrations of the test compound added as a solution in DMSO (0.3% vol/vol maximum final concentration of DMSO), or with DMSO in the respective concentration only (positive control). Subsequent addition of LPA (18:1, 1-oleoyl-sn-glycerol 3-phosphate; 100 nM final concentration) leads to liberation of intracellular calcium from internal stores resulting in a large transient increase of the fluo-4 fluorescence signal which was monitored over approximately 3 min. The percent inhibition caused by the test compound was determined from the maximum fluorescence response after LPA addition to cells pre-incubated with the compound as compared to the maximum fluorescence response after LPA addition to cells pre-incubated with DMSO only. All fluorescence values were corrected for the baseline fluorescence values obtained with cells which were pre-incubated with DMSO only and were not treated with LPA (baseline control). All measurements were performed in triplicate. From the percent inhibitions the inhibitory concentration IC50 was determined.

Chain of human Edg-2 receptor (LPA1 receptor) (Q92633 whole entry): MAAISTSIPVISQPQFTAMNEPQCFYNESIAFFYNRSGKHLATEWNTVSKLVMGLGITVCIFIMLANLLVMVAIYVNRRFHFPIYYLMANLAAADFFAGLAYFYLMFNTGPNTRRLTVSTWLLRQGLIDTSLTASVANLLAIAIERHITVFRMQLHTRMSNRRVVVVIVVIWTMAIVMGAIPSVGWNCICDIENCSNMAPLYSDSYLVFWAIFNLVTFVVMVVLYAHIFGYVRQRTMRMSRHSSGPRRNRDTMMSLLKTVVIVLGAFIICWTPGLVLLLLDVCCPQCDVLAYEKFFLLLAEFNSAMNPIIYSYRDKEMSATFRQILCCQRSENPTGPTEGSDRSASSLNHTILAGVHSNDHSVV

| IC50 | Compound |
| --- | --- |
| < 100 nM | COc1ccc(C(=O)NC2(C(=O)O)Cc3ccccc3C2)cc1OCCc1ccccc1Cl [Example 149] |
| 1000 to 30000 nM | COc1ccc(C(=O)NC2(C(=O)O)Cc3ccccc3C2)cc1OCCCN1CCCCC1 [Example 85] |
| 100 to 1000 nM | COc1ccc(C(=O)NC2(C(=O)O)Cc3ccccc3C2)cc1-c1cc(C)cs1 [Example 300] |
| < 100 nM | Cc1cccc(CCOc2cc(C(=O)NC3(C(=O)O)Cc4ccccc4C3)ccc2C(C)F)c1 (stereo not shown) [Example 11, 2-[4-(1-Fluoro-ethyl)-3-(2-m-tolyl-ethoxy)-benzoylamino]-indane-2-carboxylic acid] |
| 1000 to 30000 nM | COc1ccc(C(=O)NC2(C(=O)O)Cc3ccccc3C2)cc1OCCc1noc2ccccc12 [Example 354] |
| 100 to 1000 nM | COc1ccc(C(=O)NC2(C(=O)O)Cc3ccccc3C2)cc1OCCc1cccc(Cl)c1F [Example 153] |
| 1000 to 30000 nM | COc1ccc(C(=O)NC2(C(=O)O)Cc3ccccc3C2)cc1NC(=O)c1cccc(F)c1 [Example 120, 2-[3-[3-fluoro-benzoylamino)-4-methoxy-benzoylamino)-indane-2-carboxylic acid] |
| 1000 to 30000 nM | COc1ccc(C(=O)NC2(C(=O)O)Cc3ccccc3C2)cc1OCC(C)(C)C [Example 37] |
| < 100 nM | C=CCOc1ccc(C(=O)NC2(C(=O)O)Cc3ccccc3C2)cc1OCCc1cccc(C)c1 [Example 269] |
| < 100 nM | Cc1cccc(CCOc2cc(C(=O)NC3(C(=O)O)Cc4ccccc4C3)ccc2OCC2CCC2)c1 [Example 262] |
| < 100 nM | COc1ccc(C(=O)NC2(C(=O)O)Cc3ccccc3C2)cc1NCCc1cccc(C)c1 [Example 171, 2-[4-Methoxy-3-(2-m-tolyl-ethylamino)-benzoylamino]-indane-2-carboxylic acid] |
| 100 to 1000 nM | COc1ccc(C(=O)NC2(C(=O)O)Cc3ccccc3C2)cc1-c1ccc2occc2c1 [Example 326] |
| 100 to 1000 nM | COc1ccc(C(=O)NC2(C(=O)O)Cc3ccccc3C2)cc1-c1cccc(CNC(C)=O)c1 [Example 339] |
| < 100 nM | COc1ccc(C(=O)NC2(C(=O)O)Cc3ccccc3C2)cc1-c1cccc(NS(C)(=O)=O)c1 [Example 307] |
| < 100 nM | O=C(NC1(C(=O)O)Cc2ccccc2C1)c1ccc(C(F)(F)F)c(OCCc2c(F)cccc2Cl)c1 [Example 187] |
| < 100 nM | COc1ccc(Cl)cc1-c1cc(C(=O)NC2(C(=O)O)Cc3ccccc3C2)ccc1OC [Example 296] |
| < 100 nM | Cc1cccc(CCOc2cc(C(=O)NC3(C(=O)O)Cc4ccccc4C3)ccc2OCC2CCCCC2)c1 [Example 257] |
| 1000 to 30000 nM | COc1ccc(C(=O)NC2(C(=O)O)Cc3ccccc3C2)cc1OCC1CC(c2ccccn2)=NO1 (stereo not shown) [Example 90] |
| 100 to 1000 nM | Cc1cccc(CCOc2cc(C(=O)NC3(C(=O)O)Cc4ccccc4C3)ccc2F)c1 [Example 145] |
| 1000 to 30000 nM | COc1ccc(CCOc2cc(C(=O)NC3(C(=O)O)Cc4ccccc4C3)ccc2OC)cc1 [Example 137] |

More lines, now with the values behind:

| Compound | IC50 |
| --- | --- |
| COc1ccc(C(=O)NC2(C(=O)O)Cc3ccccc3C2)cc1-c1cccc(OC(F)(F)F)c1 [Example 302] | < 100 nM |
| Cc1cccc(CCNc2cc(C(=O)NC3(C(=O)O)Cc4ccccc4C3)ccc2C#N)c1 [Example 173, 2-[4-Cyano-3-(2-m-tolyl-ethylamino)-benzoylamino]-indane-2-carboxylic acid] | 1000 to 30000 nM |
| COc1ncc(C(=O)NC2(C(=O)O)Cc3ccccc3C2)cc1-c1cccc(C)c1 [Example 224, 2-{[6-methoxy-5-(3-methyl-phenyl)-pyridine-3-carbonyl]-amino}-indane-2-carboxylic acid] | < 100 nM |
| COc1ccc(C(=O)NC2(C(=O)O)Cc3ccccc3C2)cc1OCCc1cc(C)cc(C)c1 [Example 22] | 1000 to 30000 nM |
| COc1ccc(C(=O)NC2(C(=O)O)Cc3ccccc3C2)cc1OCCCC1CC(c2ccccc2)=NO1 (stereo not shown) [Example 53] | 1000 to 30000 nM |
| COc1cc(-c2cc(C(=O)NC3(C(=O)O)Cc4ccccc4C3)ccc2OC)cc(C(F)(F)F)c1 [Example 349] | < 100 nM |
| COc1ccc(C(=O)NC2(C(=O)O)Cc3ccc(C#N)cc3C2)cc1OCCc1cccc(C)c1 (stereo not shown) [Example 218, 5-Cyano-2-[4-methoxy-3-(2-m-tolyl-ethoxy)-benzoylamino]-indane-2-carboxylic acid] | < 100 nM |
| COc1cc(C(=O)NC2(C(=O)O)Cc3ccccc3C2)ccc1OCCc1ccccc1Cl [Example 162, 2-{4-[2-(2-Chloro-phenyl)-ethoxy]-3-methoxy-benzoylamino}-indane-2-carboxylic acid] | 1000 to 30000 nM |
| COc1ccc(C(=O)NC2(C(=O)O)Cc3ccccc3C2)cc1-c1cccc(OCC2CC2)c1 [Example 324] | 1000 to 30000 nM |
| COc1ccc(C(=O)NC2(C(=O)O)Cc3ccccc3C2)cc1OCc1cc(-c2csc(C)n2)on1 [Example 74] | 1000 to 30000 nM |
| COc1ncc(C(=O)NC2(C(=O)O)Cc3ccccc3C2)cc1-c1cccc(C#N)c1 [Example 236] | < 100 nM |
| Cc1ccc(C(=O)NC2(C(=O)O)Cc3ccccc3C2)cc1OCCc1ccccc1F [Example 177, 2-{3-[2-(2-Fluoro-phenyl)-ethoxy]-4-methyl-benzoylamino}-indane-2-carboxylic acid] | 100 to 1000 nM |
| COc1ccc(C(=O)NC2(C(=O)O)Cc3ccccc3C2)cc1-c1cccc(C#N)n1 [Example 283] | 1000 to 30000 nM |
| COc1c(F)cc(C(=O)NC2(C(=O)O)Cc3ccccc3C2)cc1-c1cccc(NS(=O)(=O)N(C)C)c1 [Example 361] | < 100 nM |
| COc1ccc(C(=O)NC2(C(=O)O)Cc3ccccc3C2)cc1CCOc1cccc(C)c1 [Example 115, 2-[4-Methoxy-3-(2-m-tolyloxy-ethyl)-benzoylamino]-indane-2-carboxylic acid] | 1000 to 30000 nM |
| COc1ccc(C(=O)NC2(C(=O)O)Cc3cc(C)c(C)cc3C2)cc1OCCc1cccc(C)c1 [Example 158, 2-[4-Methoxy-3-(2-m-tolyl-ethoxy)-benzoylamino]-5,6-dimethyl-indane-2-carboxylic acid] | 100 to 1000 nM |
| CCSc1cccc(-c2cc(C(=O)NC3(C(=O)O)Cc4ccccc4C3)cnc2OC)c1 [Example 233] | < 100 nM |
| CCOc1ccc(COc2cc(C(=O)NC3(C(=O)O)Cc4ccccc4C3)ccc2OC)cc1 [Example 29] | 1000 to 30000 nM |
| COc1ccc(C(=O)NC2(C(=O)O)Cc3ccccc3C2)cc1OCC1CCCN(C)C1 (stereo not shown) [Example 48] | 1000 to 30000 nM |
| COc1ccc(C(=O)NC2(C(=O)O)Cc3ccccc3C2)cc1OCCc1cccc(C(C)C)c1 [Example 25] | < 100 nM |
| COc1ccc(C(=O)NC2(C(=O)O)Cc3ccccc3C2)cc1OCCc1cccc(CCNC(C)=O)c1 [Example 247, 2-(3-{2-[3-(2-Acetylamino-ethyl)-phenyl]-ethoxy}-4-methoxy-benzoylamino)-indane-2-carboxylic acid] | 100 to 1000 nM |
| COc1ccc(C(=O)NC2(C(=O)O)Cc3ccccc3C2)cc1OCCc1ccccc1 [Example 130] | < 100 nM |
| C=CC1CN2CCC1CC2COc1cc(C(=O)NC2(C(=O)O)Cc3ccccc3C2)ccc1OC (stereo not shown) [Example 58] | 1000 to 30000 nM |
| CCOc1cccc(-c2cc(C(=O)NC3(C(=O)O)Cc4ccccc4C3)ccc2OC)c1 [Example 288] | 100 to 1000 nM |
| Cc1cccc(CCOc2cc(C(=O)NC3(C(=O)O)Cc4ccccc4C3)ccc2OCCC(C)(C)C)c1 [Example 261] | 100 to 1000 nM |
| COc1ccc(C(=O)NC2(C(=O)O)Cc3ccccc3C2)cc1-c1ccc(C(C)(C)C)cc1 [Example 201] | 1000 to 30000 nM |
